Data taken from PMC6315506 (Viruses, 2018).

Columns and labels:
Conditions in all cases: 10 µM
HIV-1/H5N1 pseudovirus = test: organism not typed; format: cell-based, influenza A virus A/Goose/Qinghai/59/05 (H5N1)
HIV-1/LASV pseudovirus = test: microbe, parasite or virus in culture; format: cell-based
HIV-1/EBOV pseudovirus = tested on: HIV-1/EBOV pseudovirus
A549 cells = tested on: A549 cells

Structure (SMILES): COc1nc2ccccc2cc1C(Nc1ccccc1NCCN(C)C)c1ccccc1 (centres unmarked) [SYL1621]
- Inhibition HIV/H5N1 (HIV-1/H5N1 pseudovirus): 97.96%
- Inhibition HIV/LASV (HIV-1/LASV pseudovirus): 99.14%
- Inhibition HIV/EBOV (HIV-1/EBOV pseudovirus): 99.90%
- Cell Viability (A549 cells): 52.36%

Structure (SMILES): COc1nc2ccc(Br)cc2cc1C(Nc1ccccc1OCCN(C)C)c1ccccc1 (centres unmarked) [SYL1622]
- Inhibition HIV/H5N1 (HIV-1/H5N1 pseudovirus): 96.99%
- Inhibition HIV/LASV (HIV-1/LASV pseudovirus): 83.38%
- Inhibition HIV/EBOV (HIV-1/EBOV pseudovirus): 99.12%
- Cell Viability (A549 cells): 77.49%

Structure (SMILES): COc1nc2ccc(Br)cc2cc1C(c1ccccc1)N(CCN(C)C)c1cccc2ccccc12 (centres unmarked) [SYL1623]
- Inhibition HIV/H5N1 (HIV-1/H5N1 pseudovirus): 105.28%
- Inhibition HIV/LASV (HIV-1/LASV pseudovirus): 15.39%
- Inhibition HIV/EBOV (HIV-1/EBOV pseudovirus): 97.68%
- Cell Viability (A549 cells): 87.19%

Structure (SMILES): COc1nc2ccccc2cc1C(c1ccccc1)n1c(=O)n(CCN(C)C)c2ccccc21 (centres unmarked) [SYL1624]
- Inhibition HIV/H5N1 (HIV-1/H5N1 pseudovirus): 53.54%
- Inhibition HIV/LASV (HIV-1/LASV pseudovirus): 85.88%
- Inhibition HIV/EBOV (HIV-1/EBOV pseudovirus): 99.82%
- Cell Viability (A549 cells): 86.63%

Structure (SMILES): COc1nc2ccccc2cc1C(c1ccccc1)n1c(=O)n(CCCN(C)C)c2ccccc21 (centres unmarked) [SYL1625]
- Inhibition HIV/H5N1 (HIV-1/H5N1 pseudovirus): -0.36%
- Inhibition HIV/LASV (HIV-1/LASV pseudovirus): 87.77%
- Inhibition HIV/EBOV (HIV-1/EBOV pseudovirus): 99.90%
- Cell Viability (A549 cells): 86.95%

Structure (SMILES): CC(=NOCCN(C)C)c1cc2ccccc2nc1Oc1cccc2ccccc12 [SYL1626]
- Inhibition HIV/H5N1 (HIV-1/H5N1 pseudovirus): 44.19%
- Inhibition HIV/LASV (HIV-1/LASV pseudovirus): 85.39%
- Inhibition HIV/EBOV (HIV-1/EBOV pseudovirus): 99.66%
- Cell Viability (A549 cells): 86.91%

Structure (SMILES): CN(C)CCC=C(c1ccccc1)c1cc2ccccc2nc1Oc1cccc2ccccc12.Cl [SYL1627]
- Inhibition HIV/H5N1 (HIV-1/H5N1 pseudovirus): 49.35%
- Inhibition HIV/LASV (HIV-1/LASV pseudovirus): 87.33%
- Inhibition HIV/EBOV (HIV-1/EBOV pseudovirus): 99.84%
- Cell Viability (A549 cells): 89.09%

Structure (SMILES): COc1nc2ccc(Br)cc2cc1C(c1ccccc1)N1CCN(C)c2ccccc21 (centres unmarked) [SYL1628]
- Inhibition HIV/H5N1 (HIV-1/H5N1 pseudovirus): -5.51%
- Inhibition HIV/LASV (HIV-1/LASV pseudovirus): 86.50%
- Inhibition HIV/EBOV (HIV-1/EBOV pseudovirus): 99.91%
- Cell Viability (A549 cells): 86.44%

Structure (SMILES): COc1nc2ccc(Br)cc2cc1C(c1ccccc1)n1cc(CN(C)C)c2ccccc21 (centres unmarked) [SYL1629]
- Inhibition HIV/H5N1 (HIV-1/H5N1 pseudovirus): 29.75%
- Inhibition HIV/LASV (HIV-1/LASV pseudovirus): 88.22%
- Inhibition HIV/EBOV (HIV-1/EBOV pseudovirus): 99.91%
- Cell Viability (A549 cells): 90.62%

Structure (SMILES): CN(C)CCC(O)(c1cccc(F)c1)C1c2ccccc2Sc2ccccc21 (centres unmarked) [SYL1634]
- Inhibition HIV/H5N1 (HIV-1/H5N1 pseudovirus): 83.95%
- Inhibition HIV/LASV (HIV-1/LASV pseudovirus): 83.87%
- Inhibition HIV/EBOV (HIV-1/EBOV pseudovirus): 99.53%
- Cell Viability (A549 cells): 81.21%

Structure (SMILES): CN(C)CCCC(O)(c1ccccc1)c1cc2ccccc2nc1Oc1cccc2ccccc12 (centres unmarked) [SYL1635]
- Inhibition HIV/H5N1 (HIV-1/H5N1 pseudovirus): 97.52%
- Inhibition HIV/LASV (HIV-1/LASV pseudovirus): 99.31%
- Inhibition HIV/EBOV (HIV-1/EBOV pseudovirus): 99.63%
- Cell Viability (A549 cells): 11.15%

Structure (SMILES): COc1nc2ccc(Br)cc2cc1C(c1ccccc1)C1(O)CCN(C)CC1 (centres unmarked) [SYL1636]
- Inhibition HIV/H5N1 (HIV-1/H5N1 pseudovirus): 97.70%
- Inhibition HIV/LASV (HIV-1/LASV pseudovirus): 98.04%
- Inhibition HIV/EBOV (HIV-1/EBOV pseudovirus): 99.39%
- Cell Viability (A549 cells): 4.08%

Structure (SMILES): CN(C)Cc1cccc(-c2cc3ccccc3nc2Oc2cccc3ccccc23)c1 [SYL1637]
- Inhibition HIV/H5N1 (HIV-1/H5N1 pseudovirus): 97.92%
- Inhibition HIV/LASV (HIV-1/LASV pseudovirus): 81.65%
- Inhibition HIV/EBOV (HIV-1/EBOV pseudovirus): 99.81%
- Cell Viability (A549 cells): 80.11%

Structure (SMILES): CN(C)Cc1cccc(-c2cc3cc(Br)ccc3nc2OCc2cccc3ccccc23)c1 [SYL1638]
- Inhibition HIV/H5N1 (HIV-1/H5N1 pseudovirus): 98.27%
- Inhibition HIV/LASV (HIV-1/LASV pseudovirus): 99.18%
- Inhibition HIV/EBOV (HIV-1/EBOV pseudovirus): 99.91%
- Cell Viability (A549 cells): 18.62%

Structure (SMILES): CN(C)Cc1cccc(-c2cc3cc(Br)ccc3nc2Sc2cccc(O)c2)c1 [SYL1639]
- Inhibition HIV/H5N1 (HIV-1/H5N1 pseudovirus): 97.65%
- Inhibition HIV/LASV (HIV-1/LASV pseudovirus): 98.93%
- Inhibition HIV/EBOV (HIV-1/EBOV pseudovirus): 99.85%
- Cell Viability (A549 cells): 2.71%

Structure (SMILES): CN(C)CCc1cccc(-c2cc3cc(Br)ccc3nc2OCc2cccc3ccccc23)c1 [SYL1643]
- Inhibition HIV/H5N1 (HIV-1/H5N1 pseudovirus): 72.74%
- Inhibition HIV/LASV (HIV-1/LASV pseudovirus): 83.87%
- Inhibition HIV/EBOV (HIV-1/EBOV pseudovirus): 99.82%
- Cell Viability (A549 cells): 85.39%

Structure (SMILES): CN1CCC(c2ccccc2)(C(O)(c2ccccc2)c2ccc3ccccc3c2)CC1 (centres unmarked) [SYL1644]
- Inhibition HIV/H5N1 (HIV-1/H5N1 pseudovirus): 97.63%
- Inhibition HIV/LASV (HIV-1/LASV pseudovirus): 92.36%
- Inhibition HIV/EBOV (HIV-1/EBOV pseudovirus): 99.92%
- Cell Viability (A549 cells): 78.35%

Structure (SMILES): COc1nc2ccc(Br)cc2cc1C(c1ccccc1)C1(OC(=O)c2ccccc2)CCN(C)CC1 (centres unmarked) [SYL1645]
- Inhibition HIV/H5N1 (HIV-1/H5N1 pseudovirus): 45.37%
- Inhibition HIV/LASV (HIV-1/LASV pseudovirus): 86.68%
- Inhibition HIV/EBOV (HIV-1/EBOV pseudovirus): 99.92%
- Cell Viability (A549 cells): 82.47%

Structure (SMILES): CN(C)C(=O)c1cccc(-c2cc3ccccc3nc2Oc2cccc3ccccc23)c1 [SYL1646]
- Inhibition HIV/H5N1 (HIV-1/H5N1 pseudovirus): -23.29%
- Inhibition HIV/LASV (HIV-1/LASV pseudovirus): 82.50%
- Inhibition HIV/EBOV (HIV-1/EBOV pseudovirus): 99.92%
- Cell Viability (A549 cells): 83.55%

Structure (SMILES): Fc1cccc(COc2nc3ccc(Br)cc3cc2-c2cccc(Oc3ccccn3)c2)c1 [SYL1647]
- Inhibition HIV/H5N1 (HIV-1/H5N1 pseudovirus): 44.09%
- Inhibition HIV/LASV (HIV-1/LASV pseudovirus): 89.08%
- Inhibition HIV/EBOV (HIV-1/EBOV pseudovirus): 99.94%
- Cell Viability (A549 cells): 82.66%

Structure (SMILES): CN(C)Cc1cccc(-c2cc3cc(Br)ccc3nc2Oc2ccncc2)c1 [SYL1648]
- Inhibition HIV/H5N1 (HIV-1/H5N1 pseudovirus): 37.82%
- Inhibition HIV/LASV (HIV-1/LASV pseudovirus): 89.27%
- Inhibition HIV/EBOV (HIV-1/EBOV pseudovirus): 99.91%
- Cell Viability (A549 cells): 84.21%

Structure (SMILES): COc1nc2ccc(Br)cc2cc1C(O)(Cc1cccc(F)c1)c1ccccc1CN(C)C (centres unmarked) [SYL1649]
- Inhibition HIV/H5N1 (HIV-1/H5N1 pseudovirus): 79.45%
- Inhibition HIV/LASV (HIV-1/LASV pseudovirus): 90.46%
- Inhibition HIV/EBOV (HIV-1/EBOV pseudovirus): 99.90%
- Cell Viability (A549 cells): 81.62%

Structure (SMILES): Fc1cccc(COc2nc3ccc(Br)cc3cc2-c2cccc(-c3ncco3)c2)c1 [SYL1650]
- Inhibition HIV/H5N1 (HIV-1/H5N1 pseudovirus): -15.72%
- Inhibition HIV/LASV (HIV-1/LASV pseudovirus): 87.63%
- Inhibition HIV/EBOV (HIV-1/EBOV pseudovirus): 99.92%
- Cell Viability (A549 cells): 81.60%

Structure (SMILES): COc1nc2ccccc2cc1C(O)(Cc1cccc(F)c1)c1ccccc1 (centres unmarked) [SYL1651]
- Inhibition HIV/H5N1 (HIV-1/H5N1 pseudovirus): 30.01%
- Inhibition HIV/LASV (HIV-1/LASV pseudovirus): 89.23%
- Inhibition HIV/EBOV (HIV-1/EBOV pseudovirus): 99.95%
- Cell Viability (A549 cells): 79.56%

Structure (SMILES): CN(C)Cc1ccccc1C(O)c1cc2cc(Br)ccc2nc1OCc1cccc2ccccc12 (centres unmarked) [SYL1652]
- Inhibition HIV/H5N1 (HIV-1/H5N1 pseudovirus): 98.16%
- Inhibition HIV/LASV (HIV-1/LASV pseudovirus): 97.16%
- Inhibition HIV/EBOV (HIV-1/EBOV pseudovirus): 99.94%
- Cell Viability (A549 cells): 61.30%

Structure (SMILES): Brc1ccc2nc(Oc3cccc4ccccc34)c(-c3ccccc3)cc2c1 [SYL1653]
- Inhibition HIV/H5N1 (HIV-1/H5N1 pseudovirus): 64.36%
- Inhibition HIV/LASV (HIV-1/LASV pseudovirus): 87.04%
- Inhibition HIV/EBOV (HIV-1/EBOV pseudovirus): 99.85%
- Cell Viability (A549 cells): 82.57%

Structure (SMILES): CN(C)Cc1cccc(-c2cc3cc(Br)ccc3nc2Nc2cccc3ccccc23)c1 [SYL1656]
- Inhibition HIV/H5N1 (HIV-1/H5N1 pseudovirus): 49.96%
- Inhibition HIV/LASV (HIV-1/LASV pseudovirus): 51.43%
- Inhibition HIV/EBOV (HIV-1/EBOV pseudovirus): 79.70%
- Cell Viability (A549 cells): 77.79%

Structure (SMILES): COc1nc2ccccc2cc1C(O)(Cc1cccc(F)c1)c1cccc(CN(C)C)c1 (centres unmarked) [SYL1659]
- Inhibition HIV/H5N1 (HIV-1/H5N1 pseudovirus): 96.52%
- Inhibition HIV/LASV (HIV-1/LASV pseudovirus): 97.39%
- Inhibition HIV/EBOV (HIV-1/EBOV pseudovirus): 99.09%
- Cell Viability (A549 cells): 36.09%

Structure (SMILES): CN1CCC(c2ccccc2)(C(O)(c2ccccc2)c2ccccc2)CC1 [SYL1661]
- Inhibition HIV/H5N1 (HIV-1/H5N1 pseudovirus): 5.09%
- Inhibition HIV/LASV (HIV-1/LASV pseudovirus): 72.11%
- Inhibition HIV/EBOV (HIV-1/EBOV pseudovirus): 99.91%
- Cell Viability (A549 cells): 77.89%

Structure (SMILES): COc1nc2ccccc2cc1C(Nc1ccccc1N1CCN(C)C1=O)c1ccccc1 (centres unmarked) [SYL1662]
- Inhibition HIV/H5N1 (HIV-1/H5N1 pseudovirus): 68.52%
- Inhibition HIV/LASV (HIV-1/LASV pseudovirus): 89.05%
- Inhibition HIV/EBOV (HIV-1/EBOV pseudovirus): 99.56%
- Cell Viability (A549 cells): 89.06%

Structure (SMILES): COc1ccc(CC(O)(c2ccccc2CN(C)C)c2cc3cc(OC)ccc3nc2OC)cc1 (centres unmarked) [SYL1663]
- Inhibition HIV/H5N1 (HIV-1/H5N1 pseudovirus): 88.29%
- Inhibition HIV/LASV (HIV-1/LASV pseudovirus): 89.19%
- Inhibition HIV/EBOV (HIV-1/EBOV pseudovirus): 99.90%
- Cell Viability (A549 cells): 89.15%

Structure (SMILES): CN(C)Cc1cccc(-c2cc3cc(Br)ccc3nc2OCCc2cccc3ccccc23)c1 [SYL1664]
- Inhibition HIV/H5N1 (HIV-1/H5N1 pseudovirus): 50.44%
- Inhibition HIV/LASV (HIV-1/LASV pseudovirus): 86.44%
- Inhibition HIV/EBOV (HIV-1/EBOV pseudovirus): 99.90%
- Cell Viability (A549 cells): 84.59%
